Measurements from patent publication US5639783A, “Ketone derivatives” (Mitsubishi Chemical Corporation, priority 1991, dated 1997).
Like-named read-outs stand apart in the source and are kept apart here.

Tests used:
Format in all cases: biochemical
cathepsin L = biological target: T1, cathepsin L (Rattus norvegicus, UniProt P07154); assay: Thiol protease inhibitory activity, cathepsin L purified from rat kidney; settings: Table 3
T1 construct: Cathepsin L was purified from rat kidney; from tissue; host or cells: rat kidney
T1 sequence (P07154 114-334): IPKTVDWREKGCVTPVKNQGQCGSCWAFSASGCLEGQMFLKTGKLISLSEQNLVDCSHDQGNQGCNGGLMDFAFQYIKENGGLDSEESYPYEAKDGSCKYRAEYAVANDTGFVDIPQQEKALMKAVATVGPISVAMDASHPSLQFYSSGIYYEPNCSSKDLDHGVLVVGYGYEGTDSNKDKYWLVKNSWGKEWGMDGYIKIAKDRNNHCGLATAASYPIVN
Experimental: (§1) Inhibitory activity against papain (P-3125, Sigma) and cathepsin B (C-6286, Sigma) was assayed according to the method described in a literature [Biochemical Journal, 201, 189 (1982)]. Cathepsin L was purified from rat kidney according to the method in a literature [Journal of Biochemistry, 100, 35 (1986)], and the inhibitory activity against it was assayed in the same manner as described in the above literature for cathepsin B. Furthermore, m-calpain was purified from rat brain according to a known method [Journal of Biological Chemistry, 254, p. 3210 (1984)] and the inhibitory activity against it was assayed by a method described in a literature [Journal of Biological Chemistry, 259, 12489 (1984)]. It is evident from Tables 3 and 4 that the compounds of the present invention have a potent inhibitory activity against thiol proteases such as papain, cathepsin B, cathepsin L or m-calpain.

cathepsin B = biological target: T2, cathepsin B (Bos taurus, UniProt P07688); assay: Thiol protease inhibitory activity, cathepsin B (C-6286, Sigma); settings: Table 3
T2 construct: purchased Sigma C-6286
Experimental: as §1

m-calpain = biological target: T3, m-calpain (Rattus norvegicus, UniProt Q07009); assay: Thiol protease inhibitory activity, m-calpain purified from rat brain; settings: Table 3
T3 construct: m-calpain was purified from rat brain; from tissue; host or cells: rat brain
T3 sequence (Q07009 20-700 limits assumed): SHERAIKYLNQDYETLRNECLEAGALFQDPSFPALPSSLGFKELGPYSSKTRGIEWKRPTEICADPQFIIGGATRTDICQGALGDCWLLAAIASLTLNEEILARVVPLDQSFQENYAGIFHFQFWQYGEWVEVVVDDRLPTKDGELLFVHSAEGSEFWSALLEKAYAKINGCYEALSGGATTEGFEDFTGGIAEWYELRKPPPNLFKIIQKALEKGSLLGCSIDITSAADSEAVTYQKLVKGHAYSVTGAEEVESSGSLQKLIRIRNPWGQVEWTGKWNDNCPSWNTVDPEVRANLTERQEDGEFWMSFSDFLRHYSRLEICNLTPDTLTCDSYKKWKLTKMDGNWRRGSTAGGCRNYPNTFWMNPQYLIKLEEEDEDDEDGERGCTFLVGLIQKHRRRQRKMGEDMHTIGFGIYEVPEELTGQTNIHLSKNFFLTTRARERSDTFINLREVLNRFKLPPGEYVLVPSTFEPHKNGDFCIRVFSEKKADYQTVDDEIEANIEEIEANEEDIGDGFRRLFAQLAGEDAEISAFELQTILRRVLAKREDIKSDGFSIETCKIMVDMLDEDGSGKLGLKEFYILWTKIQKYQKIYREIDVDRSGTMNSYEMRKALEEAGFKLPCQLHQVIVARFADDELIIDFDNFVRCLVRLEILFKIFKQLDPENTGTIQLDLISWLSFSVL
T3 sequence (Q64537 1-270 partner): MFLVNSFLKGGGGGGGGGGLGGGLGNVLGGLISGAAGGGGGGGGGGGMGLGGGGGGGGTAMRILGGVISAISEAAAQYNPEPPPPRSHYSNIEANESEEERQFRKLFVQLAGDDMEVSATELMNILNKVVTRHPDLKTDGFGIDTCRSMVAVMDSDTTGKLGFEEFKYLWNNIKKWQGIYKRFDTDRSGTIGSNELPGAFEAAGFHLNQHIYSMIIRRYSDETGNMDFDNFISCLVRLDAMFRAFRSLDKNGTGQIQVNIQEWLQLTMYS
Experimental: as §1

papain = biological target: T4, papain (Carica papaya, UniProt P00784); assay: Thiol protease inhibitory activity, papain (P-3125, Sigma)
T4 sequence (P00784 134-345): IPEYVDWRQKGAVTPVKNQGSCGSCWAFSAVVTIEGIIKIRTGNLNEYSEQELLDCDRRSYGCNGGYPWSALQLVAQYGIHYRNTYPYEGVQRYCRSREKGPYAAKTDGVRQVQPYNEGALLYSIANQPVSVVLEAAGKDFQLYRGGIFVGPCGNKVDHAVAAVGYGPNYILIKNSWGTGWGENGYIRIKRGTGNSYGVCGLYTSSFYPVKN
Experimental: as §1

CCCC[C@H](NC(=O)[C@H](CC(C)C)NC(=O)COc1cccc(Cl)c1Cl)C(=O)CSCc1ccco1 [41 (No. 91), (s)-3-[(s)-2-(2,3-dichlorophenoxyacetylamino)-4-methylvalerylamino]-1-furfurylthio-2-heptanone]
IC50 (cathepsin L): 1.1 µM
IC50 (cathepsin B): 5.7 µM
IC50 (m-calpain): 14 µM
IC50 (papain; Table 3, read-out: IC50 papain): 21 µM

CCCC[C@H](NC(=O)[C@H](CC(C)C)NC(=O)COc1ccc(Cl)cc1Cl)C(=O)CSCc1ccco1 [42 (No. 92), (s)-3-[(s)-2-(2,4-dichlorophenoxyacetylamino)-4-methylvalerylamino]-1-furfurylthio-2-heptanone]
IC50 (cathepsin L): 0.74 µM
IC50 (cathepsin B): 1.9 µM
IC50 (m-calpain): 23 µM
IC50 (papain; Table 3, read-out: IC50 papain): 4.5 µM

CCCC[C@H](NC(=O)[C@H](CC(C)C)NC(=O)COc1c(Cl)cc(Cl)cc1Cl)C(=O)CSCc1ccco1 [43 (No. 94), (s)-1-furfurylthio-3-[(s)-4-methyl-2-(2,4,6-trichlorophenoxyacetylamino)valerylamino]-2-heptanone]
IC50 (cathepsin L): 0.038 µM
IC50 (cathepsin B): 0.057 µM
IC50 (m-calpain): 5.8 µM
IC50 (papain; Table 3, read-out: IC50 papain): 0.37 µM

CCCC[C@H](NC(=O)[C@H](CC(C)C)NC(=O)COc1ccccc1C)C(=O)CSCc1ccco1 [44 (No. 96), (s)-1-furfurylthio-3-[(s)-4-methyl-2-(2-methylphenoxyacetylamino)valerylamino]-2-heptanone]
IC50 (cathepsin L): 0.06 µM
IC50 (cathepsin B): 0.17 µM
IC50 (m-calpain): 22 µM
IC50 (papain; Table 3, read-out: IC50 papain): 0.88 µM

CCCC[C@H](NC(=O)[C@H](CC(C)C)NC(=O)COc1cccc(C)c1)C(=O)CSCc1ccco1 [45 (No. 97), (s)-1-furfurylthio-3-[(s)-4-methyl-2-(3-methylphenoxyacetylamino)valerylamino]-2-heptanone]
IC50 (cathepsin L): 0.19 µM
IC50 (cathepsin B): 0.38 µM
IC50 (m-calpain): 11 µM
IC50 (papain; Table 3, read-out: IC50 papain): 0.51 µM

CCCC[C@H](NC(=O)[C@H](CC(C)C)NC(=O)COc1ccc(Cl)cc1C)C(=O)CSCc1ccco1 [46 (No. 100), (s)-3-[(s)-2-(4-chloro-2-methylphenoxyacetylamino)-4-methylvalerylamino]-1-furfurylthio-2-heptanone]
IC50 (cathepsin L): 0.1 µM
IC50 (cathepsin B): 0.4 µM
IC50 (m-calpain): 16 µM
IC50 (papain; Table 3, read-out: IC50 papain): 0.39 µM

CCCC[C@H](NC(=O)[C@H](CC(C)C)NC(=O)CSc1ccccc1)C(=O)CSCc1ccco1 [49 (No. 107), (s)-1-furfurylthio-3-((s)-4-methyl-2-phenylthioacetylaminovalerylamino)-2-heptanone]
IC50 (cathepsin L): 0.67 µM
IC50 (cathepsin B): 0.59 µM
IC50 (m-calpain): 11 µM
IC50 (papain): 0.04 µM

CCCC[C@H](NC(=O)[C@H](CC(C)C)NC(=O)COc1ccc2ccccc2c1)C(=O)CSCc1ccco1 [53 (No. 115), (s)-1-furfurylthio-3-[(s)-4-methyl-2-(2-naphtoxyacetylamino)valerylamino]-2-heptanone]
IC50 (cathepsin L): 1.5 µM
IC50 (cathepsin B): 11 µM
IC50 (m-calpain): 6.2 µM
IC50 (papain; Table 3, read-out: IC50 papain): 9.2 µM

CCCC[C@H](NC(=O)[C@H](CC(C)C)NC(=O)c1ccccc1)C(=O)CSCc1ccco1 [54 (No. 116), (s)-3-((s)-2-benzoylamino-4-methylvalerylamino)-1-furfurylthio-2-heptanone]
IC50 (cathepsin L): 0.25 µM
IC50 (cathepsin B): 0.88 µM
IC50 (m-calpain): 14 µM
IC50 (papain; Table 3, read-out: IC50 papain): 0.38 µM

CCCC[C@H](NC(=O)[C@H](CC(C)C)NC(=O)c1ccc2ccccc2c1)C(=O)CSCc1ccco1 [82 (No. 162), (s)-1-furfurylthio-3-[(s)-4-methyl-2-(2-naphtoylamino)valerylamino]-2-heptanone]
IC50 (cathepsin L): 0.32 µM
IC50 (cathepsin B): 2.7 µM
IC50 (m-calpain): 20 µM
IC50 (papain; Table 3, read-out: IC50 papain): 34 µM

CCCC[C@H](NC(=O)[C@H](CC(C)C)NC(=O)c1cccc2ccccc12)C(=O)CSCc1ccco1 [83 (No. 161), (s)-1-furfurylthio-3-[(s)-4-methyl-2-(1-naphtoylamino)valerylamino]-2-heptanone]
IC50 (cathepsin L): 0.4 µM
IC50 (cathepsin B): 5 µM
IC50 (m-calpain): 12 µM
IC50 (papain; Table 3, read-out: IC50 papain): 47 µM

CCCC[C@H](NC(=O)[C@H](CC(C)C)NC(=O)c1cc2ccccc2o1)C(=O)CSCc1ccco1 [91 (No. 180), (s)-3-[(s)-2-(2-benzofuranylcarbonylamino)-4-methylvalerylamino]-1-furfurylthio-2-heptanone]
IC50 (cathepsin L): 0.069 µM
IC50 (cathepsin B): 0.05 µM
IC50 (m-calpain): 14 µM
IC50 (papain; Table 3, read-out: IC50 papain): 0.16 µM

CC(C)C[C@H](NC(=O)OCc1ccccc1)C(=O)N[C@@H](CC1CCCCC1)C(=O)CSCc1ccco1 [109 (No. 238), (s)-3-((s)-2-benzyloxycarbonylamino-4-methylvalerylamino)-4-cyclohexyl-1-furfurylthio-2-butanone]
IC50 (cathepsin L): 1.2 µM
IC50 (cathepsin B): 1.1 µM
IC50 (m-calpain): 13 µM
IC50 (papain; Table 3, read-out: IC50 papain): 4.2 µM

CC(C)C[C@H](NC(=O)COc1ccccc1)C(=O)N[C@@H](CC1CCCCC1)C(=O)CSCc1ccco1 [110 (No. 240), (s)-4-cyclohexyl-1-furfurylthio-3-((s)-4-methyl-2-phenoxyacetylaminovalerylamino)-2-butanone]
IC50 (cathepsin L): 0.98 µM
IC50 (cathepsin B): 3.3 µM
IC50 (m-calpain): 6 µM
IC50 (papain): 21 µM

CSCC(=O)[C@H](Cc1ccccc1)NC(=O)[C@H](CC(C)C)NC(=O)Cc1cccc2ccccc12 [120 (No. 256), (s)-3-[(s)-4-methyl-2-(1-naphtylacetylamino)valerylamino]-1-methylthio-4-phenyl-2-butanone]
IC50 (cathepsin L): 0.49 µM
IC50 (cathepsin B): 3.9 µM
IC50 (m-calpain): 26 µM
IC50 (papain; Table 3, read-out: IC50 papain): 56 µM

CCC(C)[C@H](NC(=O)OCC1CCCCC1)C(=O)N[C@@H](Cc1ccccc1)C(=O)CSCc1ccco1 (stereo partly drawn) [135 (No. 288), (s)-3-((s)-2-cyclohexylmethoxycarbonylamino-3-methylvalerylamino)-1-furfurylthio-4-phenyl-2-butanone]
IC50 (cathepsin L): 0.054 µM
IC50 (cathepsin B): 0.31 µM
IC50 (m-calpain): 3.2 µM
IC50 (papain; Table 3, read-out: IC50 papain): 59 µM

CC(C)C[C@H](NC(=O)OCc1ccccn1)C(=O)N[C@@H](Cc1ccccc1)C(=O)CSCc1ccco1 [150 (No. 313), (s)-1-furfurylthio-3-[(s)-4-methyl-2-(2-pyridylmethoxycarbonylamino)valerylamino]-4-phenyl-2-butanone]
IC50 (cathepsin L): 0.27 µM
IC50 (cathepsin B): 1.1 µM
IC50 (m-calpain): 5.4 µM
IC50 (papain; Table 3, read-out: IC50 papain): 91 µM

CC(C)C[C@H](NC(=O)Cc1cccc2ccccc12)C(=O)N[C@@H](Cc1ccccc1)C(=O)CSCc1ccco1 [159 (No. 333), (s)-1-furfurylthio-3-[(s)-4-methyl-2-(l-naphtylacetylamino)valerylamino]-4-phenyl-2-butanone]
IC50 (cathepsin L): 1.1 µM
IC50 (cathepsin B): 0.75 µM
IC50 (m-calpain): 1.9 µM
IC50 (papain; Table 3, read-out: IC50 papain): 0.38 µM

CC(C)C[C@H](NC(=O)Cc1ccc2ccccc2c1)C(=O)N[C@@H](Cc1ccccc1)C(=O)CSCc1ccco1 [160 (No. 334), (s)-1-furfurylthio-3-[(s)-4-methyl-2-(2-naphtylacetylamino)valerylamino]-4-phenyl-2-butanone]
IC50 (cathepsin L): 6.6 µM
IC50 (cathepsin B): 3.3 µM
IC50 (m-calpain): 28 µM
IC50 (papain; Table 3, read-out: IC50 papain): 35 µM

CC(C)C[C@H](NC(=O)COc1ccccc1)C(=O)N[C@@H](Cc1ccccc1)C(=O)CSCc1ccco1 [164 (No. 348), (s)-1-furfurylthio-3-((s)-4-methyl-2-phenoxyacetylaminovalerylamino)-4-phenyl-2-butanone]
IC50 (cathepsin L): 3.2 µM
IC50 (cathepsin B): 64 µM
IC50 (m-calpain): 1.7 µM
IC50 (papain): 35 µM

CC(C)C[C@H](NC(=O)C(C)Oc1ccccc1)C(=O)N[C@@H](Cc1ccccc1)C(=O)CSCc1ccco1 (stereo partly drawn) [165 (No. 349), (s)-1-furfurylthio-3-[(s)-4-methyl-2-(2-phenoxypropionylamino)valerylamino]-4-phenyl-2-butanone]
IC50 (cathepsin L): 1.9 µM
IC50 (cathepsin B): 7 µM
IC50 (m-calpain): 13 µM
IC50 (papain; Table 3, read-out: IC50 papain): 9.2 µM
